Assay [1] can be described thus: Bocillin-FL fluorescence polarization competition binding assay, A. baumannii PBP3. Particulars: fluorescence polarization competition binding assay using Bocillin-FL; column 3; read-out: 4. baumannii PBP1a Potency. Put shortly:
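Fluorescence polarization (ex 490/em 520 nm) competition of inhibitors against Bocillin-FL at 0.1 μM, read up to 60 min. Final PBP levels: E. coli PBP3 1.5 μM; A. baumannii PBP2 2.5 μM, PBP3 0.2 μM in Tris pH 8.0/NaCl/glycerol/Tween 20; N. gonorrhoeae PBP2 […] in Hepes pH 8.0/NaCl/glycerol. EC50 = concentration halving PBP-bound Bocillin-FL.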
(In fluorescence polarisation assays a small probe gives low polarisation when free and higher when bound to something large.)

For another assay, the target named is T1, A. baumannii PBP2 (Acinetobacter baumannii, UniProt D0C8Z9).
T1 construct: made in house
T1 sequence (D0C8Z9 1-672): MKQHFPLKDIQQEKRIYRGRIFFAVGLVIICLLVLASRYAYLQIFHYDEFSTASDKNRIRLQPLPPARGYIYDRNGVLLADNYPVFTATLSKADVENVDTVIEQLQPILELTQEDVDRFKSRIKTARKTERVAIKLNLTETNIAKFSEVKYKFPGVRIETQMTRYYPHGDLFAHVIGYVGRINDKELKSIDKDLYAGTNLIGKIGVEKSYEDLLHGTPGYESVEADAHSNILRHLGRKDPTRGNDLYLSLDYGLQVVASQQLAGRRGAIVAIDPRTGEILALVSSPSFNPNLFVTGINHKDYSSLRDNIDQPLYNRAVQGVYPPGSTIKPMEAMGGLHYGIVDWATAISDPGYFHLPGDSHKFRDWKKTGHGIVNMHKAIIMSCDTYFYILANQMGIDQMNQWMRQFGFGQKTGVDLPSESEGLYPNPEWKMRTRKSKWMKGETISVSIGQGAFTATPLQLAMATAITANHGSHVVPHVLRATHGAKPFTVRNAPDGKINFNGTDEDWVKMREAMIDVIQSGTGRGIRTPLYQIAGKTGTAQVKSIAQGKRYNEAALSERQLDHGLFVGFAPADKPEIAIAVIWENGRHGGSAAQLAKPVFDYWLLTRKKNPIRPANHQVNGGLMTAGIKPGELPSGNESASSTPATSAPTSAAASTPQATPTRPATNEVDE
As to the kind of experiment: Bocillin-FL fluorescence polarization competition binding assay, A. baumannii PBP2. Particulars: fluorescence polarization competition binding assay using Bocillin-FL; read-out: A. baumannii PBP2 Potency. An excerpt: Example I: Experimental Method for Penicillin-Binding Protein Binding Assays with Bocillin-FL Via Fluorescence Polarization
To determine the ability of boronic acid-based test PBP inhibitors to bind Penicillin Binding Proteins (PBPs), Bocillin-FL (fluorescently-labeled penicillin V; ThermoFisher Scientific) was used in a fluorescence polarization (FP) competition binding assay to assess inhibitor binding to PBP2, PBP3 or PBP4 from Escherichia coli (K12), PBP3 from Pseudomonas aeruginosa (PA01), PBP1a, PBP2 and PBP3 from Acinetobacter baumannii (ATCC 19606), and PBP2 from Neiserria gonorrheae (FA19). PBPs were cloned and purified as described previously (E. coli PBPs, King, D. T, et al., ACS Infectious Diseases 2015, 1, 175-184; P. aeruginosa PBP3, Han et. al., PNAS 2010, 107 (51), 22002-22007; A. baumannii PBPs, Penwell et. al., Antimicrob. Agents Chemother. 2015, 59 (3), 1680-1689; N. gonorrhoeae PBP2, Singh et. al., J Biol. Chem. 2019, 294 (38), 14020-14032). To establish assay conditions for competition binding, enzyme titration/saturation binding experiments were initially performed. Bocillin-FL was prepared at 0.2 μM in a buffer comprised of 50 mM Hepes (pH 8.0), 300 mM NaCl and 5% (v/v) glycerol for reactions with E. coli, P. aeruginosa and N. gonorrhoeae PBPs, and 25 mM Tris (pH 8.0), 200 mM NaCl and 10% (v/v) glycerol and 0.005% (v/v) Tween 20 for reactions with A. baumannii PBPs. Saturation binding was performed by mixing 40 μl of PBP solutions ranging in concentrations from 0-24 μM with 40 μl of the 0.2 μM Bocillin-FL solution, in individual wells of a black 384-well microplate. FP was measured immediately upon mixing (Excitation, 490 nm; Emission, 520 nm; g-factor, 0.96), using a Cytation3 (BioTek) microplate reader and measured continuously for up to 120 minutes. […] The competition binding assay (80 μl final volume) was validated using beta-lactams and PBPs at final concentrations of: 1.5 μM, E. coli PBP3; 0.75 μM, P. aeruginosa PBP3; 1 μM A. baumannii PBP1a; 2.5 μM A. baumannii PBP2; 0.2 μM A. baumannii PBP3; and […] N. gonorrhoeae PBP2. Bocillin-FL was at 0.1 μM (0.05 μM with A. baumannii PBP1a) and beta-lactam concentrations ranged from 0-1000 μM. […] Bocillin-FL was added and the FP immediately measured for up to 60 minutes (90 minutes for E. coli PBP2). […] The beta-lactam potency was reported as the concentration of beta-lactam required to reduce the amount of PBP bound-Bocillin-FL by 50% (EC50). […] Binding assays for boronic acid PBP inhibitors were performed in an identical fashion for the respective PBPs

pEC50: −log10 of the molar value.

For `NCCN1CCN(C(=O)N[C@H](C(=O)N[C@H]2Cc3cccc(C(=O)O)c3OB2O)c2c(F)cc(O)cc2F)C(=O)C1=O` (single isomer, unassigned) [Example 110], the pEC50 in assay [1] was under 4.00.
On the same count and under the same terms, the result for `CCN1CCN(C(=O)N[C@@H](C(=O)N[C@H]2Cc3cccc(C(=O)O)c3OB2O)c2ccc(C(=O)O)cc2)C(=O)C1=O` (single isomer, unassigned) [Example 124] reads over 5.00; that for `CCN1CCN(C(=O)N[C@H](C(=O)N[C@H]2Cc3ccc(F)c(C(=O)O)c3OB2O)c2c(F)cc(O)c(O)c2Cl)C(=O)C1=O` (single isomer, unassigned) [Example 125], under 4.00.
Same read-out and setting: in the case of `NC1(CN2CCN(C(=O)N[C@@H](C(=O)N[C@H]3Cc4ccc(F)c(C(=O)O)c4OB3O)c3cc(F)c(O)c(O)c3Cl)C(=O)C2=O)CC1` (single isomer, unassigned) [Example 133] it was over 5.00.
As to `NC1(CN2CCN(C(=O)N[C@@H](C(=O)N[C@H]3Cc4ccc(F)c(C(=O)O)c4OB3O)c3c(F)cc(O)c(O)c3Cl)C(=O)C2=O)CC1` (single isomer, unassigned) [Example 134], the pEC50 on A. baumannii PBP2 is 4.00 to 4.52; in assay [1] it was over 5.00.
`NCCN1CCN(C(=O)N[C@@H](C(=O)N[C@H]2Cc3ccc(F)c(C(=O)O)c3OB2O)c2cc(F)c(O)c(O)c2Cl)C(=O)C1=O` (single isomer, unassigned) [Example 179]: the pEC50 (at A. baumannii PBP2; in assay [1]) was under 4.00 in each case.
Consider `NCCCN1CCN(C(=O)N[C@@H](C(=O)N[C@H]2Cc3ccc(F)c(C(=O)O)c3OB2O)c2cc(F)c(O)c(O)c2Cl)C(=O)C1=O` (single isomer, unassigned) [Example 180], for which the pEC50 (at A. baumannii PBP2; in assay [1]) was under 4.00 throughout.
Regarding `C[C@@H](O)[C@@H](NC(=O)N1CCN(CCNC(=O)c2c(F)cc(O)c(O)c2Cl)C(=O)C1=O)C(=O)N[C@H]1Cc2ccc(F)c(C(=O)O)c2OB1O` [Example 102, (R)-3-((2R,3R)-2-(4-(2-(2-chloro-6-fluoro-3,4-dihydroxybenzamido)ethyl)-2,3-dioxopiperazine-1-carboxamido)-3-hydroxybutanamido)-7-fluoro-2-hydroxy-3,4-dihydro-2H-benzo[e][1,2]oxaborinine-8-carboxylic acid], the pEC50 on A. baumannii PBP2 is under 4.00; in assay [1], 4.00 to 4.52.
Take `NS(=O)(=O)Nc1cccc(C(NC(=O)N2CCN(Cc3c(F)cc(O)c(O)c3Cl)C(=O)C2=O)C(=O)N[C@H]2Cc3cccc(C(=O)O)c3OB2O)c1` (stereo partly drawn) [Example 131, (3R)-3-(2-(4-(2-chloro-6-fluoro-3,4-dihydroxybenzyl)-2,3-dioxopiperazine-1-carboxamido)-2-(3-(sulfamoylamino)phenyl)acetamido)-2-hydroxy-3,4-dihydro-2H-benzo[e][1,2]oxaborinine-8-carboxylic acid]: the pEC50 on A. baumannii PBP2 is 4.00 to 4.52; in assay [1], over 5.00.
Taken in the same sequence, the figures for `NS(=O)(=O)c1cc(O)cc(C(NC(=O)N2CCN(Cc3c(F)cc(O)c(O)c3Cl)C(=O)C2=O)C(=O)N[C@H]2Cc3cccc(C(=O)O)c3OB2O)c1` (stereo partly drawn) [Example 132, (3R)-3-(2-(4-(2-chloro-6-fluoro-3,4-dihydroxybenzyl)-2,3-dioxopiperazine-1-carboxamido)-2-(3-hydroxy-5-sulfamoylphenyl)acetamido)-2-hydroxy-3,4-dihydro-2H-benzo[e][1,2]oxaborinine-8-carboxylic acid] were under 4.00 and over 5.00.
Regarding `CCN1CCN(C(=O)NC(C(=O)N[C@H]2Cc3cccc(C(=O)O)c3OB2O)c2c(F)cc(N)cc2F)C(=O)C1=O` (stereo partly drawn) [Example 181, (3R)-3-(2-(4-amino-2,6-difluorophenyl)-2-(4-ethyl-2,3-dioxopiperazine-1-carboxamido)acetamido)-2-hydroxy-3,4-dihydro-2H-benzo[e][1,2]oxaborinine-8-carboxylic acid], the pEC50 (at A. baumannii PBP2; in assay [1]) was under 4.00 in each case.
